Test results as given in publication PMC4574540, “Aspergillus niger membrane-associated proteome analysis for the identification of glucose transporters” (Biotechnology for Biofuels, 2015).

Key:
MstG = molecular target: T1, MstG (Aspergillus niger, UniProt A2QKT1); test: competition of […]-glucose uptake in yeast cells; assay type: cell-based; settings: read-out: % inhibition at 10 mM
T1 construct: gene An05g01290; also called pRS426H7), expressed in S. cerevisiae EBY.VW4000 hexose transporter null mutant, whole-cell uptake
T1 sequence (A2QKT1 1-542): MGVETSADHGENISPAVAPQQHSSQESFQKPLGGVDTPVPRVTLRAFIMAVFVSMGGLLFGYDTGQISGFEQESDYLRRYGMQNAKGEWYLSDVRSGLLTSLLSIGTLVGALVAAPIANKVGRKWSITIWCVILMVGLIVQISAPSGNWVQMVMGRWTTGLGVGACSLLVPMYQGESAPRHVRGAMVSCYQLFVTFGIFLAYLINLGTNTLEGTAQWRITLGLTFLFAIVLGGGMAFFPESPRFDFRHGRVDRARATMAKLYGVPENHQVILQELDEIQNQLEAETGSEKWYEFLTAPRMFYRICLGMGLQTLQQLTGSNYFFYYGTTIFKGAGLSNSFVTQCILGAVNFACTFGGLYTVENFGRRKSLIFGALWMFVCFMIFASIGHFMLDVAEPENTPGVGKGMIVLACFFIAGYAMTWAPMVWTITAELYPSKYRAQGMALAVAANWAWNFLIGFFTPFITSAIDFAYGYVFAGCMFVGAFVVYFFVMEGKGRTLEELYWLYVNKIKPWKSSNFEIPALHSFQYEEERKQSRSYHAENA

MstH = molecular target: T2, MstH (Aspergillus niger, UniProt A5ABZ0); test: competition of […]-glucose uptake in yeast cells; assay type: cell-based; settings: read-out: % inhibition at 10 mM
T2 construct: gene An15g03940; also called pRS426H7), expressed in S. cerevisiae EBY.VW4000 hexose transporter null mutant, whole-cell uptake
T2 sequence (A5ABZ0 1-527): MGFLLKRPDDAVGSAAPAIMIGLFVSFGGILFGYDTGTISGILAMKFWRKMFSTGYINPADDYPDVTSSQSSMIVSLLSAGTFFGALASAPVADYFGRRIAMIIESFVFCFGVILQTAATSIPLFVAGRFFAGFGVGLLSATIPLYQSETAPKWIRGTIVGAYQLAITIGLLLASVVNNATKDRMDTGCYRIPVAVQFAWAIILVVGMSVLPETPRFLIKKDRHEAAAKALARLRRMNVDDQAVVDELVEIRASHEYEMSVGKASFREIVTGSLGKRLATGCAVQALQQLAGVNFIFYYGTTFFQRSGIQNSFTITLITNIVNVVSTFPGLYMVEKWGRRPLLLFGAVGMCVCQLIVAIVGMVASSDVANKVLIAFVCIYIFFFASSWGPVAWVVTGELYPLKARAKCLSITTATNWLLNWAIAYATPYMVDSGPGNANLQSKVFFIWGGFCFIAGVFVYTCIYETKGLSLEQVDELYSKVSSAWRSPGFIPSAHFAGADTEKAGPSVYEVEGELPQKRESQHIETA

| Compound | inhibition at 10000 µM (MstG) | inhibition at 10000 µM (MstH) |
| --- | --- | --- |
| OCC1(O)OC[C@@H](O)[C@@H](O)[C@@H]1O (some centres unmarked) [fructose] | 29% | 50% |
| OC[C@H]1OC(O)[C@@H](O)[C@@H](O)[C@@H]1O (some centres unmarked) [mannose] | – | 70% |
| OC1OC[C@@H](O)[C@H](O)[C@H]1O (some centres unmarked) [xylose] | 25% | – |
| OC[C@H]1OC(O)[C@H](O)[C@@H](O)[C@H]1O (some centres unmarked) [galactose] | 39% | – |
